Source: patent publication US9133115B2 (ACHILLION PHARMACEUTICALS, INC., priority 2008, dated 2015)

Tested on: HCV replicon
Experiment: HCV replicon replication assay (NPT ELISA) in Huh-7 replicon-containing cells
Type: cell-based
Conditions: Hepatitis C virus, 72 h; HCV replicon in Huh-7 cells, three days incubation; read-out: EC50
Protocol: Compounds claimed herein are tested for the ability to inhibit viral replication of the Hepatitis C replicon in cultured cells in which the HCV replicon construct has been incorporated. The HCV replicon system was described by Bartenschlager, et. al (Science, 285, pp. 110-113 (1999)). The replicon system is predictive of in vivo anti-HCV activity; compounds that are active in humans uniformly evidence activity in the replicon assay.
In this assay HCV replicon containing cells are treated with different concentrations of the test compound to ascertain the ability of the test compound to suppress replication of the HCV replicon. As a positive control, HCV replicon-containing cells are treated with different concentrations of interferon alpha, a known inhibitor of HCV replication. The replicon assay system includes Neomycin Phosphotransferase (NPT) as a component of the replicon itself in order to detect the transcription of replicon gene products in the host cell. Cells in which the HCV replicon is actively replicating have high levels of NPT; the level of NPT is proportional to HCV replication. […] The NPT level of each sample is measured using a captured ELISA.
A protocol for testing compounds for the ability to inhibit viral replication of the Hepatitis C replicon cultured cells in which the replicon construct has been incorporated, follows.
The HCV replicon contains, 5′-3′, the HCV-IRES, the neomycin phosphotransferase (neo) gene, the IRES of encephalomyocarditis virus, which directs translation of HCV sequences NS3 to NS5B, and the 3′-NTR. The sequence of the HCV replicon has been deposited in GenBank (Accession no. AJ242652).
The replicon is transfected into Huh-7 cells using standard methods such as electroporation.
The equipment and materials include, but are not limited to, Huh-7 HCV replicon-containing cells, maintenance media (DMEM (Dulbecco's modified Eagle media) supplemented with 10% FBS, L-glutamine, non-essential amino acids, penicillin (100 units/ml), streptomycin (100 micrograms/ml), and 500 micrograms/ml of Geneticin (G418), screening media (DMEM supplemented with 10% FBS, L-glutamine, non-essential amino acids, penicillin (100 units/ml) and streptomycin (100 micrograms/ml)), 96 well tissue culture plates (flat bottom), 96 well plates (U bottom for drug dilution), Interferon alpha for positive control, fixation reagent (such as methanol: acetone), primary antibody (rabbit anti-NPTII), secondary antibody: Eu-N1 l, and enhancement solution.
HCV replicon-containing cells support high levels of viral RNA replicon replication when their density is suitable. Over-confluency causes decreased viral RNA replication. Therefore, cells must be kept growing in log phase in the presence of 500 micrograms/ml of G418. Generally, cells should be passed twice a week at 1: 4-6 dilution. Cell maintenance is conducted as follows:
HCV replicon-containing cells are examined under a microscope to ensure that cells growing well. Cells are rinsed once with PBS and 2 ml trypsin is added. The cell/trypsin mixture is incubated at 37° C. in a CO2 incubator for 3-5 minutes. After incubation 10 ml of complete media is added to stop the trypsinization reaction. Cells are blown gently, put into a 15 ml tube, and spun at 1200 rpm for 4 minutes. The trypsin/medium solution is removed. Medium (5 ml) is added and the cells are mixed carefully. The cells are counted.
The cells are then seeded onto 96-well plates at a density of 6000-7500 cells/100 microliters/well (6-7.5×10^5 cells/10 ml/plate). The plates are then incubated at 37° C. in a 5% CO2 incubator.
Cells are examined under a microscope approximated 24 hours after seeding and prior to adding drugs. If counting and dilution were performed correctly, cells are 60-70% confluent and nearly all cells should attach and spread evenly in the well.
HCV replicon-containing cells are rinsed with once PBS once; 2 mls of trypsin are then added. Cells are incubated at 37° C. in a 5% CO2 incubator for 3-5 minutes. […]

`C=CC1C[C@@]1(NC(=O)[C@@H]1C[C@@H](Oc2cc(-c3ccccc3)nc3cc(OC)ccc23)CN1C(=O)C[C@H](C(=O)N1CCCCC1)C(C)(C)C)C(=O)NS(=O)(=O)C1CC1` (stereo partly drawn) [Compound 39, (2S,4R)-N-(1-(cyclo-propylsulfonyl-carbamoyl)-2-vinylcyclopropyl)-1-((S)-4,4-dimethyl-3-(piperidine-1-carbonyl)pentano-yl)-4-(7-methoxy-2-phenylquinolin-4-yloxy)pyrrolidine-2-carboxamide] and `C=C[C@@H]1C[C@]1(NC(=O)[C@@H]1C[C@@H](Oc2cc(-c3ccccc3)nc3cc(OC)ccc23)CN1C(=O)C(CC(=O)N1CCCCC1)C(C)(C)C)C(=O)NS(=O)(=O)C1CC1` (stereo partly drawn) [Compound 55, (2S,4R)-1-(2-tert-butyl-4-oxo-4-(piperidin-1-yl)butanoyl)-N-((1R,2S)-1-(cyclopropyl-sulfonylcarbamoyl)-2-vinylcyclopropyl)-4-(7-methoxy-2-phenylquinolin-4-yloxy)pyrrolidine-2-carboxamide] cannot be ordered by EC50: under 1000 nM for the first, under 1000 nM for the second.

Compared with `C=C[C@@H]1C[C@]1(NC(=O)[C@@H]1C[C@@H](Oc2cc(-c3ccccc3)nc3cc(OC)ccc23)CN1C(=O)[C@@H](CC(=O)N1C2CCC1CC(=O)C2)C(C)(C)C)C(=O)NS(=O)(=O)C1CC1` [Compound 169, (2S,4R)-1-((2S)-2-tert-butyl-4-oxo-4-(3-oxo-8-aza-bicyclo[3.2.1]octan-8-yl)butanoyl)-N-((1R,2S)-1-(cyclopropyl-sulfonylcarbamoyl)-2-vinylcyclopropyl)-4-(7-methoxy-2-phenylquinolin-4-yloxy)pyrrolidine-2-carboxamide], `C=CC1CC1(NC(=O)[C@@H]1C[C@@H](Oc2cc(-c3ccccc3)nc3cc(OC)ccc23)CN1C(=O)[C@@H](CC(=O)N1CCCC(C(N)=O)C1)C(C)(C)C)C(=O)NS(=O)(=O)C1CC1` (stereo partly drawn) [Compound 45, 1-((3S)-3-((2S,4R)-2-(1-(cyclopropyl-sulfonylcarbamoyl)-2-vinylcyclopropyl-carbamoyl)-4-(7-methoxy-2-phenylquinolin-4-yloxy)pyrrolidine-1-carbonyl)-4,4-dimethylpentano-yl)piperidine-3-carboxamide] is higher in EC50: under 1000 nM for the first, 1000 to 10000 nM for the second.

`C=C[C@@H]1C[C@]1(NC(=O)[C@@H]1C[C@@H](NC(=O)n2c3ccccc3c3ccccc32)CN1C(=O)[C@@H](CC(=O)N1CC2CCC1C2)C(C)(C)C)C(=O)NS(=O)(=O)C1CC1` (stereo partly drawn) [Compound 198, N-((3R,5S)-1-((2S)-2-(2-(2-aza-bicyclo[2.2.1]heptan-2-yl)-2-oxoethyl)-3,3-dimethylbutanoyl)-5-((1R)-1-(cyclo-propylsulfonyl-carbamoyl)-2-vinylcyclopropyl-carbamoyl)pyrrolidin-3-yl)-9H-carbazole-9-carboxamide] and `C=C[C@@H]1C[C@]1(NC(=O)[C@@H]1C[C@@H](NC(=O)c2cc(-c3ccccc3)nc3ccccc23)CN1C(=O)[C@@H](CC(=O)N1CCCC(F)C1)C(C)(C)C)C(=O)NS(=O)(=O)C1CC1` (stereo partly drawn) [Compound 204, N-((3R,5S)-1-((2S)-2-tert-butyl-4-(3-fluoropiperidin-1-yl)-4-oxobutanoyl)-5-((1R,2S)-1-(cyclopropylsulfonyl-carbamoyl)-2-vinyl-cyclopropyl-carbamoyl)pyrrolidin-3-yl)-2-phenylquinoline-4-carboxamide] cannot be ordered by EC50: under 1000 nM for the first, under 1000 nM for the second.

`C=C[C@@H]1C[C@]1(NC(=O)[C@@H]1C[C@@H](Oc2cc(-c3ccccn3)nc3c(Cl)c(OC)ccc23)CN1C(=O)[C@@H](CC(=O)N1CCC(C(F)(F)F)CC1)C(C)(C)C)C(=O)NS(=O)(=O)C1CC1` [Compound 208, (2S,4R)-1-((S)-2-tert-butyl-4-oxo-4-(4-(trifluoro-methyl)piperidin-1-yl)butanoyl)-4-(8-chloro-7-methoxy-2-(pyridin-2-yl)quinolin-4-yloxy)-N-((1R)-1-(cyclopropyl-sulfonylcarbamoyl)-2-vinylcyclo-propyl)pyrrolidine-2-carboxamide] and `C=C[C@@H]1C[C@]1(NC(=O)[C@@H]1C[C@@H](Oc2cc(-c3ccccc3)nc3ccc(C)cc23)CN1C(=O)[C@@H](CC(=O)N1CCCCC1)C(C)(C)C)C(=O)NS(=O)(=O)C1CC1` [Compound 226, (2S,4R)-1-((S)-2-tert-butyl-4-oxo-4-(piperidin-1-yl)butanoyl)-N-((1R)-1-(cyclopropyl-sulfonylcarbamoyl)-2-vinylcyclopropyl)-4-(6-methyl-2-phenylquinolin-4-yloxy)pyrrolidine-2-carboxamide] cannot be ordered by EC50: under 1000 nM for the first, under 1000 nM for the second.

First: C=C[C@@H]1C[C@]1(NC(=O)[C@@H]1C[C@@H](Oc2cc(-c3ccccc3)nc3cc(OC)ccc23)CN1C(=O)[C@@H](CC(=O)N1CCCCC1)C(C)(C)C)C(=O)NS(=O)(=O)CCC [Compound 136, (2S,4R)-1-((S)-2-tert-butyl-4-oxo-4-(piperidin-1-yl)butanoyl)-4-(7-methoxy-2-phenylquinolin-4-yloxy)-N-((1R,2S)-1-(propylsulfonyl-carbamoyl)-2-vinyl-cyclopropyl)pyr-rolidine-2-carboxamide]
Second: C=C[C@@H]1C[C@]1(NC(=O)[C@@H]1C[C@@H](Oc2cc(-c3ccccc3)nc3cc(OC)ccc23)CN1C(=O)[C@@H](CC(=O)N1CCCCC1)C(C)(C)C)C(=O)NS(=O)(=O)C1(Cc2ccccc2)CC1 [Compound 147, (2S,4R)-N-((1R,2S)-1-(1-benzylcyclo-propylsulfonyl-carbamoyl)-2-vinyl-cyclopropyl)-1-((S)-2-tert-butyl-4-oxo-4-(piperidin-1-yl)butanoyl)-4-(7-methoxy-2-phenylquinolin-4-yloxy)pyrrolidine-2-carboxamide]
The EC50 of the first is lower: under 1000 nM for the first, 1000 to 10000 nM for the second.

Compared with `C=C[C@@H]1C[C@]1(NC(=O)[C@@H]1C[C@@H](Oc2cc(-c3ccccc3)nc3cc(OC)ccc23)CN1C(=O)[C@@H](CC(=O)N1CCCC2CCCCC21)C(C)(C)C)C(=O)NS(=O)(=O)C1CC1` (stereo partly drawn) [Compound 183, (2S,4R)-1-((2S)-2-tert-butyl-4-(octa-hydroquinolin-1(2H)-yl)-4-oxobutanoyl)-N-((1R,2S)-1-(cyclopropylsulfonyl-carbamoyl)-2-vinylcyclopropyl)-4-(7-methoxy-2-phenylquinolin-4-yloxy)pyrrolidine-2-carboxamide], `COc1ccc2c(O[C@@H]3C[C@@H](C(=O)NC(C)(C)C(=O)NS(=O)(=O)C4CC4)N(C(=O)[C@@H](CC(=O)N4CCCCC4)C(C)(C)C)C3)cc(-c3ccccc3)nc2c1` [Compound 111, (2S,4R)-1-((S)-2-tert-butyl-4-oxo-4-(piperidin-1-yl)butanoyl)-N-(1-(cyclopropane-sulfonamido)-2-methyl-1-oxopropan-2-yl)-4-(7-methoxy-2-phenylquinolin-4-yloxy)pyrrolidine-2-carboxamide] is higher in EC50: under 1000 nM for the first, 1000 to 10000 nM for the second. The first is the more potent here.

`C=C[C@@H]1C[C@]1(NC(=O)[C@@H]1C[C@@H](Oc2cc(-c3csc(N(C)C)n3)nc3cc(OC)ccc23)CN1C(=O)[C@@H](CC(=O)N1CCOCC1)C(C)(C)C)C(=O)NS(=O)(=O)C1CC1` [Compound 138, (2S,4R)-1-((S)-2-tert-butyl-4-morpholino-4-oxobutanoyl)-N-((1R,2S)-1-(cyclo-propylsulfonyl-carbamoyl)-2-vinyl-cyclopropyl)-4-(2-(2-(dimethylamino)thiazol-4-yl)-7-methoxyquinolin-4-yloxy)pyrrolidine-2-carboxamide] and `C=C[C@@H]1C[C@]1(NC(=O)[C@@H]1C[C@@H](Oc2cc(-c3nc(C(C)C)cs3)nc3cc(OC)ccc23)CN1C(=O)[C@@H](CC(=O)N1CCCCC1)C(C)(C)C)C(=O)NS(=O)(=O)C1CC1` [Compound 230, (2S,4R)-1-((S)-2-tert-butyl-4-oxo-4-(piperidin-1-yl)butanoyl)-N-((1R)-1-(cyclopropyl-sulfonylcarbamoyl)-2-vinylcyclopropyl)-4-(2-(4-isopropylthiazol-2-yl)-7-methoxyquinolin-4-yloxy)pyrrolidine-2-carboxamide] cannot be ordered by EC50: under 1000 nM for the first, under 1000 nM for the second.

Same assay, conditions: Hepatitis C virus, Huh-7

`C=CC1C[C@@]1(NC(=O)[C@@H]1C[C@@H](Oc2cc(-c3ccccc3)nc3cc(OC)ccc23)CN1C(=O)C[C@H](C(=O)N1CCCCC1)C(C)(C)C)C(=O)NS(=O)(=O)C1CC1` (stereo partly drawn) [Compound 39, (2S,4R)-N-(1-(cyclo-propylsulfonyl-carbamoyl)-2-vinylcyclopropyl)-1-((S)-4,4-dimethyl-3-(piperidine-1-carbonyl)pentano-yl)-4-(7-methoxy-2-phenylquinolin-4-yloxy)pyrrolidine-2-carboxamide] showed an EC50 of at most 10000 nM.
